Test results taken from US20030199581A1, “Boswellin compositions enhanced with 3-beta-acetyl-11-keto-beta-boswellic acid ("AKBA") industrial manufacture and uses” (priority 2002, published 2003).
Where two headings read alike, the source gives them in different places.

Experiments:
LNCaP cells = assay: Growth inhibition by cell counting, LNCaP cells; type: cell-based; conditions: Homo sapiens, 100 μg/ml, read-out: growth inhibition as compared to controls
Method: DU145 and LNCaP cells were obtained from ATCC. The cells were grown in Eagle's MEM supplemented with 1 mM sodium pyruvate, 0.1 mM glutamine, 1.5 g/l sodium bicarbonate, and 10% fetal bovine serum. A confluent plate of cells contained approximately 2×10^6 DU145cells and 10^6 LNCaP cells.
The test drug dissolved in DMSO at a concentration of 100 mg/ml was added to 6 test plates and to control plates. Two control and two drug plates each were harvested with addition of 1 ml/plate of trypsin-EDTA at 24, 48, and 72 hrs and counted by […]. The trypsinized plates were incubated for 3 min at 37° C., and 5 ml DMEM was added to each plate. Cells were collected in 15 ml tubes, and 2 ml of each cell suspension was added to 20 ml Isoton and counted.

[1] = system: CEM (lymphoblastic leukemia); assay: 3-day MTT assay, CEM cells; type: cell-based, human; conditions: 195 ng/ml phytochemical alone
Method: (§1) Biological activities of the materials produced as described in Examples 1 to 5 were determined using cultured cells. The IC50s of Boswellin (“BA1”), AKBA enriched peracetylated boswellin (“BA2”) and AKBA enriched boswellin (“BA3”) in various human and murine prostate, leukemia, melanoma, lung and breast cancer cell lines were determined. The IC50s were determined using a standard MTT assay using CEM (lymphoblastic leukemia), Du 145 (prostate cancer), PC-3 (prostate cancer), LNCaP (prostate cancer), Sk-MEL2 (human melanoma), P388D1 (murine leukemia), K562 (human mycloid leukemia), A549 (human lung cancer), MCF-7 (human breast cancer), B16F (murine melanoma) cancer cell lines (Table 2).
(§2) DU145, PC-3 and CEM cells in culture we studied to determine whether other natural products have synergistic effects with AKBA enriched boswellin. Methods for culturing the cells are described above in Example 6. To different samples of cells, we added AKBA enriched boswellin in concentrations from 0 to 120 μg/ml, resveratrol in concentrations from 0 to 3125 ng/ml, baicalin in concentrations from 0 to 3125 ng/ml and licochalcone A in concentrations from 0 to 800 μg/ml. In analogous concentrations combinations of AKBA enriched boswellin and resveratrol, baicalin and licochalcone A were studied. Cell survival was measured using the MTT assay described above.

PC-3 (prostate cancer) = assay: 3-day MTT assay, PC-3 cells; type: cell-based, human
Method: as §2, with “The IC50s were determined using a standard MTT assay using CEM (lymphoblastic leukemia), Du 145 (prostate cancer), PC-3 (prostate cancer), LNCaP (prostate cancer), Sk-MEL2 (human melanoma), P388D1 (murine leukemia), K562 (human mycloid leukemia), A549 (human lung cancer), MCF-7 (human breast cancer), B16F (murine melanoma) cancer cell lines (Table 2). […] DU145,” for “DU145,”

DU145 (prostate cancer) = assay: 3-day MTT assay, DU145 cells; type: cell-based, human; conditions: DU145, 195 ng/ml phytochemical alone
Method: as §1, §2

With `O=c1c(-c2ccc(O)cc2)coc2cc(O)cc(O)c12` [Genistein] the inhibition at 100 µg/mL (LNCaP cells; 24 h) was 32%, the inhibition at 100 µg/mL (LNCaP cells; 48 h) was 49.4% and the inhibition at 100 µg/mL (LNCaP cells; 72 h) was 60.8%.

With `O=C(O)[C@H]1O[C@@H](Oc2cc3oc(-c4ccccc4)cc(=O)c3c(O)c2O)[C@H](O)[C@@H](O)[C@@H]1O` [baicalin] the “% cell survival (conc. phytochemical)” value [1] was 85 (195 ng/ml baicalin) %, the “% cell survival (conc. phytochemical)” value (PC-3 (prostate cancer); PC-3, 12 ng/ml phytochemical alone) was 93 (12 ng/ml baicalin) % and the “% cell survival (conc. phytochemical)” value (DU145 (prostate cancer)) was 78 (195 ng/ml baicalin) %.

In the case of `C=CC(C)(C)c1cc(/C=C/C(=O)c2ccc(O)cc2)c(OC)cc1O` [licochalcone A], the “% cell survival (conc. phytochemical)” value (PC-3 (prostate cancer); PC-3, 3.1 μg/ml phytochemical alone) is reported as 98 (3.1 μg/ml licochalcone A) %.

With `Oc1ccc(C=Cc2cc(O)cc(O)c2)cc1` [resveratrol] the “% cell survival (conc. phytochemical)” value [1] was 85 (195 ng/ml resveratrol) % and the “% cell survival (conc. phytochemical)” value (DU145 (prostate cancer)) was 89 (195 ng/ml resveratrol) %.
